Assay results as given in ChEMBL document CHEMBL3259623, “A mixed population of antagonist and agonist binding conformers in a single crystal explains partial agonism against vitamin D receptor: active vitamin D analogues with 22R-alkyl group” (J Med Chem, 2014).

Target: T1, Vitamin D3 receptor (Homo sapiens, UniProt P11473)
T1 sequence (P11473 whole entry): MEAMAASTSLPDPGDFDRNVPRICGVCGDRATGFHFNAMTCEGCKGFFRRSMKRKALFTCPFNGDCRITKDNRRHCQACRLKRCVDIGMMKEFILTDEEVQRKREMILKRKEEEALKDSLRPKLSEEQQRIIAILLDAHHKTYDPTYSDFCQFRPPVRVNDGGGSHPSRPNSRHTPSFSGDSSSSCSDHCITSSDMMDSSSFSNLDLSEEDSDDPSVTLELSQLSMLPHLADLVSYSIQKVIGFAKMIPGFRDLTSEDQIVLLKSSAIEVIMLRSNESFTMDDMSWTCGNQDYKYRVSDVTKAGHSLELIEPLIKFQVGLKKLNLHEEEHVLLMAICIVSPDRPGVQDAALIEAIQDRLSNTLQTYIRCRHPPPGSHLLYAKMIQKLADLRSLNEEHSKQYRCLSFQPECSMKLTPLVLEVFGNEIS
Description: Displacement of [3H]-1-alpha,25-dihydroxyvitamin D3 from N-terminal GST-tagged human recombinant VDR LBD expressed in Escherichia coli Rosetta2 (DE3) after 16 hrs

IC50 [nM] | Structure (SMILES)
0.89 | C=C1[C@H](O)CC(=C/C=C2\CCC[C@]3(C)[C@@H]([C@H](C)[C@H](CCCC)CCCO)CC[C@@H]23)C[C@H]1O
1.55 | C=C1[C@H](O)CC(=C/C=C2\CCC[C@]3(C)[C@@H]([C@H](C)[C@H](CC)CC(C)(C)O)CC[C@@H]23)C[C@H]1O
0.29 | C=C1[C@H](O)CC(=C/C=C2\CCC[C@]3(C)[C@@H]([C@H](C)[C@H](CCCC)CCC(C)(C)O)CC[C@@H]23)C[C@H]1O
1.79 | C=C1[C@H](O)CC(=C/C=C2\CCC[C@]3(C)[C@@H]([C@H](C)[C@H](CCCC)CC(O)(CC)CC)CC[C@@H]23)C[C@H]1O
0.12 | C=C1[C@H](O)CC(=C/C=C2\CCC[C@]3(C)[C@@H]([C@H](C)[C@H](CCCC)CC(C)(C)O)CC[C@@H]23)C[C@H]1O
1.55 | C=C1[C@H](O)CC(=C/C=C2\CCC[C@]3(C)[C@@H]([C@H](C)[C@H](CC)CC(O)(CC)CC)CC[C@@H]23)C[C@H]1O
0.26 | C=C1[C@H](O)CC(=C/C=C2\CCC[C@]3(C)[C@@H]([C@H](C)[C@@H](CCO)CCCC)CC[C@@H]23)C[C@H]1O
2.39 | C=C1[C@H](O)CC(=C/C=C2\CCC[C@]3(C)[C@@H]([C@H](C)[C@H](CC)CCC(C)(C)O)CC[C@@H]23)C[C@H]1O
2.87 | C=C1[C@H](O)CC(=C/C=C2\CCC[C@]3(C)[C@@H]([C@H](C)[C@H](CC)CCO)CC[C@@H]23)C[C@H]1O
7.16 | C=C1[C@H](O)CC(=C/C=C2\CCC[C@]3(C)[C@@H]([C@H](C)[C@H](CC)CCCO)CC[C@@H]23)C[C@H]1O
